Assay results: the NIST ThermoML archive (doi:10.1021/je400423u)
Numbers after ± are expanded uncertainties.

Assay: xn = mol fraction of the nth substance listed
Conditions: 101 kPa, Liquid; for mass density: Vibrating tube method; for viscosity: Falling or rolling sphere viscometry

## CC(C)CO [2-methyl-1-propanol] + CC(C)(C)O
323.15 K, x1 = 0.8941
  mass density: 776.498 ± 0.12 kg/m3
323.15 K, x1 = 1
  mass density: 777.93 ± 0.12 kg/m3
328.15 K, x1 = 0.1038
  viscosity: 1.243 ± 0.0098 mPa·s
  mass density: 752.049 ± 0.13 kg/m3
328.15 K, x1 = 0.2004
  viscosity: 1.293 ± 0.01 mPa·s
  mass density: 754.907 ± 0.13 kg/m3
328.15 K, x1 = 0.3131
  viscosity: 1.342 ± 0.011 mPa·s
  mass density: 758.027 ± 0.13 kg/m3
328.15 K, x1 = 0.3971
  viscosity: 1.372 ± 0.011 mPa·s
  mass density: 760.272 ± 0.13 kg/m3
328.15 K, x1 = 0.4999
  viscosity: 1.4 ± 0.011 mPa·s
  mass density: 762.978 ± 0.13 kg/m3
328.15 K, x1 = 0.6002
  viscosity: 1.42 ± 0.011 mPa·s
  mass density: 765.582 ± 0.13 kg/m3
328.15 K, x1 = 0.6999
  viscosity: 1.433 ± 0.011 mPa·s
  mass density: 768.076 ± 0.13 kg/m3
328.15 K, x1 = 0.7993
  viscosity: 1.438 ± 0.011 mPa·s
  mass density: 770.382 ± 0.13 kg/m3
328.15 K, x1 = 0.8941
  viscosity: 1.439 ± 0.011 mPa·s
  mass density: 772.239 ± 0.12 kg/m3
328.15 K, x1 = 1
  mass density: 773.73 ± 0.12 kg/m3
333.15 K, x1 = 0.1038
  viscosity: 1.057 ± 0.0086 mPa·s
  mass density: 746.582 ± 0.14 kg/m3
333.15 K, x1 = 0.2004
  viscosity: 1.099 ± 0.0089 mPa·s
  mass density: 749.576 ± 0.13 kg/m3
333.15 K, x1 = 0.3131
  viscosity: 1.145 ± 0.0092 mPa·s
  mass density: 752.825 ± 0.13 kg/m3
333.15 K, x1 = 0.3971
  viscosity: 1.173 ± 0.0094 mPa·s
  mass density: 755.183 ± 0.13 kg/m3
333.15 K, x1 = 0.4999
  viscosity: 1.202 ± 0.0095 mPa·s
  mass density: 758.038 ± 0.13 kg/m3
333.15 K, x1 = 0.6002
  viscosity: 1.224 ± 0.0097 mPa·s
  mass density: 760.796 ± 0.13 kg/m3
333.15 K, x1 = 0.6999
  viscosity: 1.241 ± 0.0098 mPa·s
  mass density: 763.457 ± 0.13 kg/m3
333.15 K, x1 = 0.7993
  viscosity: 1.251 ± 0.0099 mPa·s
  mass density: 765.918 ± 0.13 kg/m3
333.15 K, x1 = 0.8941
  viscosity: 1.257 ± 0.0099 mPa·s
  mass density: 767.911 ± 0.13 kg/m3
333.15 K, x1 = 1
  mass density: 769.44 ± 0.13 kg/m3
338.15 K, x1 = 0.1038
  viscosity: 0.9089 ± 0.0077 mPa·s
  mass density: 741.045 ± 0.14 kg/m3
338.15 K, x1 = 0.2004
  viscosity: 0.9461 ± 0.0079 mPa·s
  mass density: 744.179 ± 0.14 kg/m3
338.15 K, x1 = 0.3131
  viscosity: 0.9857 ± 0.0082 mPa·s
  mass density: 747.58 ± 0.14 kg/m3
338.15 K, x1 = 0.3971
  viscosity: 1.013 ± 0.0083 mPa·s
  mass density: 750.026 ± 0.13 kg/m3
338.15 K, x1 = 0.4999
  viscosity: 1.042 ± 0.0085 mPa·s
  mass density: 753.002 ± 0.13 kg/m3
338.15 K, x1 = 0.6002
  viscosity: 1.064 ± 0.0087 mPa·s
  mass density: 755.897 ± 0.13 kg/m3
338.15 K, x1 = 0.6999
  viscosity: 1.081 ± 0.0088 mPa·s
  mass density: 758.701 ± 0.13 kg/m3
338.15 K, x1 = 0.7993
  viscosity: 1.094 ± 0.0088 mPa·s
  mass density: 761.298 ± 0.13 kg/m3
338.15 K, x1 = 0.8941
  viscosity: 1.105 ± 0.0089 mPa·s
  mass density: 763.412 ± 0.13 kg/m3
338.15 K, x1 = 1
  mass density: 765.07 ± 0.13 kg/m3
343.15 K, x1 = 0.1038
  viscosity: 0.7889 ± 0.007 mPa·s
  mass density: 735.409 ± 0.14 kg/m3
343.15 K, x1 = 0.2004
  viscosity: 0.8213 ± 0.0072 mPa·s
  mass density: 738.697 ± 0.14 kg/m3
343.15 K, x1 = 0.3131
  viscosity: 0.8569 ± 0.0074 mPa·s
  mass density: 742.239 ± 0.14 kg/m3
343.15 K, x1 = 0.3971
  viscosity: 0.8812 ± 0.0075 mPa·s
  mass density: 744.793 ± 0.14 kg/m3
343.15 K, x1 = 0.4999
  viscosity: 0.9085 ± 0.0077 mPa·s
  mass density: 747.895 ± 0.14 kg/m3
343.15 K, x1 = 0.6002
  viscosity: 0.9302 ± 0.0078 mPa·s
  mass density: 750.924 ± 0.13 kg/m3
343.15 K, x1 = 0.6999
  viscosity: 0.9494 ± 0.0079 mPa·s
  mass density: 753.891 ± 0.13 kg/m3
343.15 K, x1 = 0.7993
  viscosity: 0.9642 ± 0.008 mPa·s
  mass density: 756.647 ± 0.13 kg/m3
343.15 K, x1 = 0.8941
  viscosity: 0.9753 ± 0.0081 mPa·s
  mass density: 758.895 ± 0.13 kg/m3
343.15 K, x1 = 1
  mass density: 760.61 ± 0.13 kg/m3
